Results from US9745346B2, “Antimicrobial peptides and their application” (INFINITEC ACTIVOS S.L., priority 2014, dated 2017).
Converted amounts (≈) assume the structure as drawn. *1 amine or outer side, *2 acyl side, *3 side chain or, on linkers, in order; H or OH if unused. Where a SMILES comes first, the peptide text is derived from it. The star is where a group is joined. NH(CH2)3(OCH2CH2)2O(CH2)3NH = C(CN[*:1])COCCOCCOCCCN[*:2]; Palmitoyl = CCCCCCCCCCCCCCCC(=O)*

Tests used:
[1] = test system: Staphylococcus aureus; conditions: 21 h
Description: (§1) Minimum inhibitory concentration (MIC) is the lowest concentration of an antimicrobial that will inhibit the growth occurred between time zero and […].
(§2) The MIC of peptides of examples 1, 2 and 3 was determined using gram negative bacteria (Escherichia Coli, Vibrio angillarum, Vibrio ordalii, Enterobacter aerogenes, Aeromonas hydrophila, Vibrio parahemolyticus, Bacillus Oleronius and Salmonella tiphy) and gram positive bacteria (Bacillus megaterium, Micrococcus luteus, Staphylococcus aureus and Staphylococcus epidermidis).
(§3) To initiate the exponential phase of bacterial growth prior to the assay, a sample of each bacteria type was allowed to grow overnight at 37° C. in Mueller-Hinton broth and incubated at 37° C. MRSA (Methicillin Resistant Staphylococcus aureus) was grown at 35° C. in cation-adjusted MH broth.
(§4) A final concentration of 1×10^5 CFU/ml was used in all assays. The assays were carried out in 96-well flat-bottom plates. Bacterial suspension in 2× concentrated broth was added to the different peptides at concentrations that varied from 2.500 to 1 μ/mL in H2O in serial twofold dilutions (Time t0). The plates were then incubated for 21 h (Time tf) at 37° C. […] The concentration necessary to inhibit 50% bacterial growth (IC50) could be by using sigmoidal curve-fitting software.

[2] = test system: Micrococcus luteus; conditions: 21 h
Description: as §1, §2, §3, §4

[3] = test system: Vibrio angillarum; conditions: 21 h
Description: as §1, §2, §3, §4

[4] = test system: E. Coli; conditions: 21 h
Description: as §1, §2, §3, §4

[5] = test system: Bacillus megaterium; conditions: 21 h
Description: as §1, §2, §3, §4

[6] = test system: Staphylococcus epidermidis; conditions: 21 h
Description: as §1, §2, §3, §4

[7] = test system: Bacillus oleronius; conditions: 21 h
Description: as §1, §2, §3, §4

[8] = test system: Salmonella tiphy; conditions: 1×10^5 CFU/ml, 21 h at 37° C., optical density at 620 nm
Description: as §1, §2, §3, §4

[9] = test system: Enterobacter hydrophila; conditions: 21 h
Description: as §1, §2, §3, §4

[10] = test system: Vibro ordalii; conditions: 21 h
Description: as §1, §2, §3, §4

[11] = in vitro; format: cell-based; conditions: human
Description: As a safety test for the peptides of the present invention the hemolytic activity was determined by using human erythrocytes (RBCs).
The assays were carried out in 96-well flat-bottom plates against a 0.25% RBC suspension as described elsewhere (Blondelle, S. E., L. R. Simpkins, E. Pérez-Payá, and R. A. Houghten. 1993. Influence of tryptophan residues on melitin's hemolytic activity. Biochim. Biophys. Acta 1202:331-336.).
In brief, peptide mixtures were added to the RBC solution at concentrations that varied from 500 to 4 μg/mL in serial twofold dilutions. Following incubation at 37° C. for 1 hour, the plates were centrifuged at 2.800 rpm for 5 min. The supernatant was separated from the pellet, an its optical density at 414 nm was measured. The hemolytic dose to lyse 50% of RBCs (IC50) was calculated by using the sigmoidal curve-fitting software Graphpad.

[12] = test system: Neurospora crassa; format: cell-based
Description: (§5) For this essay, diluted spores kept at −80° C. were used (fresh ones in the case of de Saprolegnia sp.), 1×10^4 spores/ml at the specific media for every fungi. 10 μg/ml of tetracycline were added to avoid bacterial action. […] of peptide solution plus […] of spore solution alongside the adequated media are added to a 96 wells microplaque. As a positive control a culture of the spores at the same concentration than the assay but without peptide. The MICs were defined as the lowest concentrations of peptides at which total inhibition of growth is observed and no change in optical density at 595 nm occurred between the measures obtained at t0 and tf.

[13] = test system: Saprolegnia sp; format: cell-based
Description: as §5

[14] = test system: Fusarium oxysporum; format: cell-based
Description: as §5

[15] = test system: LPS from E. Coli 055:B5; experiment: LPS-neutralizing activity, chromogenic Limulus Amebocyte Lysate (LAL) test; format: biochemical; conditions: LPS 100 pg/mL, 45 min at 37° C., read-out: LPS-neutralization activity IC50 ± SD
Description: All solutions used in the LPS-neutralizing activity assay were tested to ensure they were endotoxin-free and material was sterilized by heating 3 h at 180° C. LPS from E. Coli 055:B5 and Polymyxin B were purchased from Sigma. LPS-neutralizing activity was measured using the chromogenic Limulus Amebocyte Lysate (LAL) test 40 following the manufacturer's instructions (Cambrex). LAL reagent contains a clottable protein that is activated in the presence of non-neutralized LPS and is an extremely sensitive indicator of the presence of endotoxin. When activated, this enzyme catalyses the release of p-nitroaniline (pNA) from the colorless chromogenic substrate Ac-Ile-Glu-Ala-Arg-pNA. The pNA released was measured photometrically at 405 nm in a Rosys Anthos 2010 microtiter plate reader (Tecnomara AG, Zurich, Switzerland). Peptides were incubated at a range of concentrations (200 to 0.001 μM) with LPS (100 pg/mL) in a 96-well microtiter for 45 min at 37° C. Polymyxin B (10 μg/mL) was used as positive control. LAL (12.5 μL) was added to start the reaction at 37° C. After 16 min, non-neutralized LPS was detected after a 10 min incubation with the chromogenic substrate (25 μ) Acetic acid (25% v/v final concentration) was added to stop the reaction and the absorbance was monitored at 405 nm in a Multiskan Ascent microtiter plate reader (ThermoLabsystems). IC50 (the concentration necessary to in vitro neutralize 50% of LPS) values were determined by a serial dilution assay using 100 pg/mL of LPS and a range of peptide concentrations as mentioned above.

| Compound | Gram positive bacteria MIC, Staphylococcus aureus [1] | Gram positive bacteria MIC, Micrococcus luteus [2] | Gram negative bacteria MIC, Vibrio angillarum [3] | Gram negative bacteria MIC, E. Coli [4] | Gram positive bacteria MIC, Bacillus megaterium [5] | Gram positive bacteria MIC, Staphylococcus epidermidis [6] | Gram negative bacteria MIC, Bacillus oleronius [7] | Gram negative bacteria MIC, Salmonella tiphy [8] | Gram negative bacteria MIC, Enterobacter hydrophila [9] | Gram negative bacteria MIC, Vibro ordalii [10] | HC50 at 1 hour [11] | MIC, Neurospora crassa [12] | MIC, Saprolegnia sp [13] | MIC, Fusarium oxysporum [14] | IC50 [15] |
| --- | --- | --- | --- | --- | --- | --- | --- | --- | --- | --- | --- | --- | --- | --- | --- |
| CCCCCCCCCCCCCCCC(=O)N[C@@H](CCCCN)C(=O)N[C@@H](C)C(=O)N[C@@H](CCC(N)=O)C(=O)N[C@@H](CCCCN)C(=O)N[C@@H](CCCNC(=N)N)C(=O)N[C@@H](Cc1ccccc1)C(=O)NCCCOCCOCCOCCCN [Example 3, Palm-KAQKRF-NH—(CH2)3—(OCH2CH2)3—CH2—NH2] (Palmitoyl-KAQKRF-{NH(CH2)3(OCH2CH2)2O(CH2)3NH}) | 5.5 µg/mL | 5.5 µg/mL | 30.0 µg/mL | 5.5 µg/mL | 12.1 µg/mL | 5.8 µg/mL | 8.0 µg/mL | 5.8 µg/mL | 11.6 µg/mL | 8.2 µg/mL | > 500 µg/mL | 0.3 µg/mL (≈ 0.246 µM) | 0.1 µg/mL (≈ 0.0821 µM) | 0.4 µg/mL (≈ 0.329 µM) |  |
| AQKRFL [compound 6, Ac-AQKRFL-NH2] |  |  |  |  |  |  |  |  |  |  |  |  |  |  | 46 ± 1.1 µM |
| KISGKW [compound 3, Ac-KISGKW-NH2] |  |  |  |  |  |  |  |  |  |  |  |  |  |  | 96 ± 1.1 µM |
| IKISGKWKAQKRFLKM [compound 1, Ac-IKISGKWKAQKRFLKM-NH2] |  |  |  |  |  |  |  |  |  |  |  |  |  |  | 34 ± 1.3 µM |
| IKISGK [compound 2, Ac-IKISGK-NH2] |  |  |  |  |  |  |  |  |  |  |  |  |  |  | 105 ± 1.2 µM |
| SGKWKA [compound 4, Ac-SGKWKA-NH2] |  |  |  |  |  |  |  |  |  |  |  |  |  |  | 85 ± 1.4 µM |
| CC(=O)N[C@@H](CCCCN)C(=O)N[C@@H](C)C(=O)N[C@@H](CCC(N)=O)C(=O)N[C@@H](CCCCN)C(=O)N[C@@H](CCCNC(=N)N)C(=O)N[C@@H](Cc1ccccc1)C(N)=O [Example 1, Ac-KAQKRF-NH2] (Ac-KAQKRF-NH2) | 11.7 µg/mL | 6.0 µg/mL | 31.2 µg/mL | 10.8 µg/mL | 13.7 µg/mL | 11.4 µg/mL | 11.9 µg/mL | 11.7 µg/mL | 14.2 µg/mL | 10.2 µg/mL | > 500 µg/mL | 0.9 µg/mL (≈ 1.1 µM) | 0.2 µg/mL (≈ 0.245 µM) | 0.9 µg/mL (≈ 1.1 µM) |  |
| KWKAQK [compound 5, Ac-KWKAQK-NH2] |  |  |  |  |  |  |  |  |  |  |  |  |  |  | 47 ± 1.1 µM |
| CCCCCCCCCCCCCCCC(=O)N[C@@H](CCCCN)C(=O)N[C@@H](C)C(=O)N[C@@H](CCC(N)=O)C(=O)N[C@@H](CCCCN)C(=O)N[C@@H](CCCNC(=N)N)C(=O)N[C@@H](Cc1ccccc1)C(N)=O [Example 2, Palm-KAQKRF-NH2] (Palmitoyl-KAQKRF-NH2) | 5.7 µg/mL | 5.6 µg/mL | 31.0 µg/mL | 5.6 µg/mL | 12.3 µg/mL | 5.6 µg/mL | 9.7 µg/mL | 6.1 µg/mL | 11.3 µg/mL | 7.4 µg/mL | > 500 µg/mL | 0.2 µg/mL (≈ 0.197 µM) | 0.1 µg/mL (≈ 0.0986 µM) | 0.5 µg/mL (≈ 0.493 µM) |  |
